Among the data in US11236129B2, “IL-17A binding peptides and medical uses thereof” (Dompe' Farmaceutici S.P.A., priority 2018, dated 2022) are IC50 values, retold here.

Residues, ends and D or L forms follow the SMILES beside them. A value given as a limit tells only on which side of the number the result lay.

For this test, the target named is IL-17RA/IL17RC dimerization induced by IL-17A (Homo sapiens, UniProt Q16552). Description: IL-17RA/IL17RC dimerization assay in response to IL-17A (PathHunter Cytokine Receptor Assay). The following applies: IL-17A at EC80; read-out: IC50 in IL-17RA/IL7RC dimerization assay. Format: cell-based. Put shortly: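 PathHunter cells with IL-17RA and IL-17RC tagged for β-galactosidase complementation were preincubated 60 min with peptide (1% vehicle). IL-17A was then added at EC80 for 6–16 h at 37 °C, and chemiluminescence was read. Inhibition is relative to the EC80 and vehicle controls.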
Sequence of IL-17RA/IL17RC dimerization induced by IL-17A (Q16552 24-155): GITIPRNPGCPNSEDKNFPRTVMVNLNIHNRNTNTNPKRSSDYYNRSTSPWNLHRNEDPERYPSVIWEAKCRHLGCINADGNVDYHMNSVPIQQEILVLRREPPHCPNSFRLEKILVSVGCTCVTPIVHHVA

With `CC[C@H](C)[C@H](NC(=O)[C@@H](NC(=O)[C@H](Cc1ccccc1)NC(=O)[C@H](Cc1c[nH]cn1)NC(=O)[C@@H](NC(C)=O)C(C)C)[C@@H](C)O)C(=O)N1CCC[C@H]1C(=O)N[C@@H](C)C(=O)N[C@@H](CC(=O)O)C(=O)N[C@@H](CC(C)C)C(=O)N[C@@H](Cc1ccc(O)cc1)C(=O)N[C@@H](CC(N)=O)C(=O)N[C@@H](Cc1ccccc1)C(=O)N[C@H](C(=O)N[C@@H](CCCNC(=N)N)C(=O)N[C@@H](CCCNC(=N)N)C(N)=O)C(C)C` [SEQ ID NO: 152] (Ac-VHFTIPADLYNFVRR-NH2), the IC50 is less than 0.5 µM. The value for `CC[C@H](C)[C@H](NC(=O)[C@H](Cc1ccc(O)cc1)NC(=O)[C@@H](NC(=O)[C@H](Cc1c[nH]cn1)NC(=O)[C@@H](NC(C)=O)C(C)C)C(C)C)C(=O)N1CCC[C@H]1C(=O)N[C@@H](C)C(=O)N[C@@H](CCC(=O)O)C(=O)N[C@@H](CC(C)C)C(=O)N[C@@H](Cc1c[nH]c2ccccc12)C(=O)N[C@@H](CCC(=O)O)C(=O)N[C@@H](Cc1c[nH]c2ccccc12)C(=O)N[C@H](C(=O)N[C@@H](CCCNC(=N)N)C(=O)N[C@@H](CCCNC(=N)N)C(N)=O)C(C)C` [SEQ ID NO: 122] (Ac-VHVYIPAELWEWVRR-NH2) was less than 0.5 µM; that for `CC[C@H](C)[C@H](NC(=O)[C@H](Cc1c[nH]c2ccccc12)NC(=O)[C@H](CCC(=O)O)NC(=O)[C@H](Cc1ccc(O)cc1)NC(=O)[C@H](CC(C)C)NC(=O)[C@H](CC(=O)O)NC(=O)[C@H](C)NC(=O)[C@@H]1CCCN1C(=O)[C@@H](NC(=O)[C@@H](NC(=O)[C@@H](NC(=O)[C@H](CCSC)NC(=O)[C@@H](NC(=O)[C@@H](C)O[C@H]1[C@H](O[C@@H]2O[C@H](CO)[C@@H](O)[C@H](O)[C@H]2NC(C)=O)[C@@H](CO)OC(O)[C@@H]1NC(C)=O)[C@@H](C)CC)C(C)C)[C@@H](C)O)[C@@H](C)CC)C(=O)N[C@@H](CCC(=O)O)C(=O)N[C@@H](CCC(=O)O)C(N)=O` (stereo partly shown) [BIO-3] was less than 1 µM.

`CC[C@H](C)[C@H](NC(=O)[C@H](Cc1c[nH]c2ccccc12)NC(=O)[C@H](CC(=O)O)NC(=O)[C@H](Cc1c[nH]c2ccccc12)NC(=O)[C@H](CC(C)C)NC(=O)[C@H](CC(=O)O)NC(=O)[C@H](C)NC(=O)[C@@H]1CCCN1C(=O)[C@@H](NC(=O)[C@H](CO)NC(=O)[C@@H](NC(=O)[C@H](CCCNC(=N)N)NC(=O)[C@H](CC(C)C)NC(C)=O)[C@@H](C)CC)C(C)C)C(=O)N[C@@H](CC(N)=O)C(=O)N[C@@H](CCCCN)C(N)=O` [SEQ ID NO: 240] (Ac-LRISVPADLWDWINK-NH2): the IC50 is less than 10 µM. The value for `CC[C@H](C)[C@H](NC(=O)[C@H](CO)NC(=O)[C@@H](NC(=O)[C@H](Cc1c[nH]cn1)NC(=O)[C@@H](NC(C)=O)C(C)C)C(C)C)C(=O)N1CCC[C@H]1C(=O)N[C@@H](CCC(N)=O)C(=O)N[C@@H](CCC(=O)O)C(=O)N[C@@H](CC(C)C)C(=O)N[C@@H](Cc1c[nH]c2ccccc12)C(=O)N[C@@H](CCC(=O)O)C(=O)N[C@@H](Cc1c[nH]c2ccccc12)C(=O)N[C@H](C(=O)N[C@@H](CCCNC(=N)N)C(=O)N[C@@H](CCCNC(=N)N)C(N)=O)C(C)C` [SEQ ID NO: 230] (Ac-VHVSIPQELWEWVRR-NH2) was less than 10 µM; that for `CC[C@H](C)[C@H](NC(C)=O)C(=O)N[C@@H](Cc1c[nH]cn1)C(=O)N[C@H](C(=O)N[C@H](C(=O)N[C@H](C(=O)N1CCC[C@H]1C(=O)N[C@@H](C)C(=O)N[C@@H](CC(=O)O)C(=O)N[C@@H](CC(C)C)C(=O)N[C@@H](Cc1c[nH]c2ccccc12)C(=O)N[C@@H](CC(=O)O)C(=O)N[C@@H](Cc1c[nH]c2ccccc12)C(=O)N[C@H](C(=O)N[C@@H](CC(N)=O)C(=O)N[C@@H](CCCCN)C(N)=O)[C@@H](C)CC)C(C)C)[C@@H](C)O)C(C)C` [SEQ ID NO: 183] (Ac-IHVTVPADLWDWINK-NH2) was less than 10 µM. As for `CC[C@H](C)[C@H](NC(C)=O)C(=O)N[C@@H](Cc1c[nH]cn1)C(=O)N[C@@H](C)C(=O)N[C@H](C(=O)N[C@H](C(=O)N1CCC[C@H]1C(=O)N[C@@H](C)C(=O)N[C@@H](CC(=O)O)C(=O)N[C@@H](CC(C)C)C(=O)N[C@@H](Cc1c[nH]c2ccccc12)C(=O)N[C@@H](CC(=O)O)C(=O)N[C@@H](Cc1c[nH]c2ccccc12)C(=O)N[C@H](C(=O)N[C@@H](CC(N)=O)C(=O)N[C@@H](CCCCN)C(N)=O)[C@@H](C)CC)[C@@H](C)CC)[C@@H](C)O` [SEQ ID NO: 167] (Ac-IHATIPADLWDWINK-NH2), the IC50 was less than 10 µM. The value for `CC[C@H](C)[C@H](NC(C)=O)C(=O)N[C@@H](Cc1c[nH]cn1)C(=O)N[C@H](C(=O)N[C@H](C(=O)N[C@H](C(=O)N1CCC[C@H]1C(=O)N[C@@H](C)C(=O)N[C@@H](CC(=O)O)C(=O)N[C@@H](CC(C)C)C(=O)N[C@@H](Cc1c[nH]c2ccccc12)C(=O)N[C@@H](CC(N)=O)C(=O)N[C@@H](Cc1c[nH]c2ccccc12)C(=O)N[C@H](C(=O)N[C@@H](CC(N)=O)C(=O)N[C@@H](CCCCN)C(N)=O)[C@@H](C)CC)[C@@H](C)CC)[C@@H](C)O)C(C)C` [SEQ ID NO: 208] (Ac-IHVTIPADLWNWINK-NH2) was less than 10 µM; that for `CC(=O)N[C@H](C(=O)N[C@@H](Cc1c[nH]cn1)C(=O)N[C@H](C(=O)N[C@H](C(=O)N[C@H](C(=O)N1CCC[C@H]1C(=O)N[C@@H](CCC(N)=O)C(=O)N[C@@H](CCC(=O)O)C(=O)N[C@@H](CC(C)C)C(=O)N[C@@H](Cc1ccccc1)C(=O)N[C@@H](CCC(=O)O)C(=O)N[C@@H](Cc1c[nH]c2ccccc12)C(=O)N[C@H](C(=O)N[C@@H](CCCNC(=N)N)C(=O)N[C@@H](CCCNC(=N)N)C(N)=O)C(C)C)C(C)C)[C@@H](C)O)C(C)C)C(C)C` [SEQ ID NO: 225] (Ac-VHVTVPQELFEWVRR-NH2) was less than 10 µM; that for `CC[C@H](C)[C@H](NC(=O)[C@@H](NC(=O)[C@@H](NC(=O)[C@H](CCCNC(=N)N)NC(=O)[C@@H](NC(C)=O)C(C)C)C(C)C)[C@@H](C)O)C(=O)N1CCC[C@H]1C(=O)N[C@@H](CCC(N)=O)C(=O)N[C@@H](CCC(=O)O)C(=O)N[C@@H](CC(C)C)C(=O)N[C@@H](Cc1c[nH]c2ccccc12)C(=O)N[C@@H](CCC(=O)O)C(=O)N[C@@H](Cc1c[nH]c2ccccc12)C(=O)N[C@H](C(=O)N[C@@H](CCCNC(=N)N)C(=O)N[C@@H](CCCNC(=N)N)C(N)=O)C(C)C` [SEQ ID NO: 233] (Ac-VRVTIPQELWEWVRR-NH2) was less than 10 µM. With `CC(=O)N[C@H](C(=O)N[C@@H](Cc1c[nH]cn1)C(=O)N[C@@H](Cc1ccccc1)C(=O)N[C@@H](CCC(N)=O)C(=O)N[C@@H](Cc1ccccc1)C(=O)N1CCC[C@H]1C(=O)N[C@@H](C)C(=O)N[C@@H](CC(=O)O)C(=O)N[C@@H](CC(C)C)C(=O)N[C@@H](Cc1c[nH]c2ccccc12)C(=O)N[C@@H](CCC(=O)O)C(=O)N[C@@H](Cc1ccccc1)C(=O)N[C@H](C(=O)N[C@@H](CCCNC(=N)N)C(=O)N[C@@H](CCCNC(=N)N)C(N)=O)C(C)C)C(C)C` [SEQ ID NO: 134] (Ac-VHFQFPADLWEFVRR-NH2) the figure was less than 0.5 µM; with `CC[C@H](C)[C@H](NC(C)=O)C(=O)N[C@@H](Cc1c[nH]cn1)C(=O)N[C@H](C(=O)N[C@H](C(=O)N[C@H](C(=O)NCC(=O)N[C@@H](C)C(=O)N[C@@H](CC(=O)O)C(=O)N[C@@H](CC(C)C)C(=O)N[C@@H](Cc1c[nH]c2ccccc12)C(=O)N[C@@H](CC(=O)O)C(=O)N[C@@H](Cc1c[nH]c2ccccc12)C(=O)N[C@H](C(=O)N[C@@H](CC(N)=O)C(=O)N[C@@H](CCCCN)C(N)=O)[C@@H](C)CC)[C@@H](C)CC)[C@@H](C)O)C(C)C` [SEQ ID NO: 187] (Ac-IHVTIGADLWDWINK-NH2), less than 10 µM; with `CC[C@H](C)[C@H](NC(C)=O)C(=O)N[C@@H](CCCNC(=N)N)C(=O)N[C@H](C(=O)N[C@H](C(=O)N[C@H](C(=O)N1CCC[C@H]1C(=O)N[C@@H](C)C(=O)N[C@@H](CC(=O)O)C(=O)N[C@@H](CC(C)C)C(=O)N[C@@H](Cc1c[nH]c2ccccc12)C(=O)N[C@@H](CC(=O)O)C(=O)N[C@@H](Cc1c[nH]c2ccccc12)C(=O)N[C@H](C(=O)N[C@@H](CC(N)=O)C(=O)N[C@@H](CCCCN)C(N)=O)[C@@H](C)CC)[C@@H](C)CC)[C@@H](C)O)C(C)C` [SEQ ID NO: 162] (Ac-IRVTIPADLWDWINK-NH2), less than 10 µM. With `CC[C@H](C)[C@H](NC(=O)[C@H](CCC(N)=O)NC(=O)[C@H](Cc1ccccc1)NC(=O)[C@H](Cc1c[nH]cn1)NC(=O)[C@@H](NC(C)=O)C(C)C)C(=O)N1CCC[C@H]1C(=O)N[C@@H](CCC(N)=O)C(=O)N[C@@H](CC(=O)O)C(=O)N[C@@H](Cc1c[nH]c2ccccc12)C(=O)N[C@@H](Cc1c[nH]c2ccccc12)C(=O)N[C@@H](CCC(=O)O)C(=O)N[C@@H](Cc1c[nH]c2ccccc12)C(=O)N[C@H](C(=O)N[C@@H](CCCNC(=N)N)C(=O)N[C@@H](CCCNC(=N)N)C(N)=O)C(C)C` [SEQ ID NO: 137] (Ac-VHFQIPQDWWEWVRR-NH2) the figure was less than 0.5 µM; with `CC(=O)N[C@H](C(=O)N[C@@H](CCCNC(=N)N)C(=O)N[C@H](C(=O)N[C@H](C(=O)N[C@H](C(=O)N1CCC[C@H]1C(=O)N[C@@H](CCC(N)=O)C(=O)N[C@@H](CCC(=O)O)C(=O)N[C@@H](CC(C)C)C(=O)N[C@@H](Cc1c[nH]c2ccccc12)C(=O)N[C@@H](CCC(=O)O)C(=O)N[C@@H](Cc1c[nH]c2ccccc12)C(=O)N[C@H](C(=O)N[C@@H](CCCNC(=N)N)C(=O)N[C@@H](CCCNC(=N)N)C(N)=O)C(C)C)C(C)C)[C@@H](C)O)C(C)C)C(C)C` [SEQ ID NO: 235] (Ac-VRVTVPQELWEWVRR-NH2), less than 10 µM; with `CC[C@H](C)[C@H](NC(=O)[C@H](CCC(=O)O)NC(=O)[C@H](CCC(N)=O)NC(=O)[C@@H]1CCCN1C(=O)[C@@H](NC(=O)[C@@H](NC(=O)[C@@H](NC(=O)[C@H](Cc1c[nH]cn1)NC(=O)[C@@H](NC(C)=O)C(C)C)C(C)C)[C@@H](C)O)[C@@H](C)CC)C(=O)N[C@@H](Cc1c[nH]c2ccccc12)C(=O)N[C@@H](CCC(=O)O)C(=O)N[C@@H](Cc1c[nH]c2ccccc12)C(=O)N[C@H](C(=O)N[C@@H](CCCNC(=N)N)C(=O)N[C@@H](CCCNC(=N)N)C(N)=O)C(C)C` [SEQ ID NO: 237] (Ac-VHVTIPQEIWEWVRR-NH2), less than 10 µM.
